Source: patent US20210046010A1, “TABLETS CONTAINING ARGININE AT HIGH CONCENTRATION” (KYOWA HAKKO BIO CO., LTD., priority 2015, published 2021)

Assays:
[1] = Moisture content of powder by heating and drying method moisture analyzer; assay type: physicochemical; conditions: heating and drying method moisture analyzer MX-50
Protocol: (§1) 600 g of L-arginine was added to 5 L of water, and the mixture was mixed, and spray dried by a spray dryer [L-8i type spray dryer (manufactured by OHKAWARA KAKOHKI CO., LTD.)] set to the conditions of atomizer rotation number=35,000 rpm, inlet temperature=180° C. and outlet temperature=70° C. to give a powder. The moisture content of the aforementioned powder was measured by a heating and drying method moisture analyzer [heating and drying method moisture analyzer MX-50 (manufactured by A&D Company, Limited)] to find 1.96 mass % The moisture content was 2.3 mass % when measured by the Karl Fischer's method at the General Incorporated Foundations Japan Food Research Laboratories. Hereinafter this powder is indicated to as “SD arginine-A”.

[2] = Moisture content of powder by Karl Fischer's method; assay type: physicochemical; conditions: Japan Food Research Laboratories
Protocol: as §1

| Structure (SMILES) | moisture content [1] [mass %] | moisture content [2] [mass %] |
| --- | --- | --- |
| N=C(N)NCCC[C@H](N)C(=O)O [SD arginine-B, L-arginine] | 1.81 | – |
| N=C(N)NCCC[C@H](N)C(=O)O [SD arginine-A, L-arginine] | 1.96 | 2.3 |
| N=C(N)NCCC[C@H](N)C(=O)O [SD arginine-C, L-arginine] | 3.80 | 3.91 |
